IC50 data for 22 compounds are collected here from patent publication US7709482B2, “Polycyclic heteroaryl substituted triazoles useful as Axl inhibitors” (Rigel Pharmaceuticals, Inc., priority 2006, dated 2010).

As usually defined, the IC50 is the point on the concentration scale where inhibition reaches its midpoint.

A value given as a limit tells only on which side of the number the result lay.

The target in the first test is T1, Axl (Homo sapiens, UniProt P30530).
T1 construct: endogenous in cells; host or cells: HeLa cells
T1 sequence (P30530 26-894): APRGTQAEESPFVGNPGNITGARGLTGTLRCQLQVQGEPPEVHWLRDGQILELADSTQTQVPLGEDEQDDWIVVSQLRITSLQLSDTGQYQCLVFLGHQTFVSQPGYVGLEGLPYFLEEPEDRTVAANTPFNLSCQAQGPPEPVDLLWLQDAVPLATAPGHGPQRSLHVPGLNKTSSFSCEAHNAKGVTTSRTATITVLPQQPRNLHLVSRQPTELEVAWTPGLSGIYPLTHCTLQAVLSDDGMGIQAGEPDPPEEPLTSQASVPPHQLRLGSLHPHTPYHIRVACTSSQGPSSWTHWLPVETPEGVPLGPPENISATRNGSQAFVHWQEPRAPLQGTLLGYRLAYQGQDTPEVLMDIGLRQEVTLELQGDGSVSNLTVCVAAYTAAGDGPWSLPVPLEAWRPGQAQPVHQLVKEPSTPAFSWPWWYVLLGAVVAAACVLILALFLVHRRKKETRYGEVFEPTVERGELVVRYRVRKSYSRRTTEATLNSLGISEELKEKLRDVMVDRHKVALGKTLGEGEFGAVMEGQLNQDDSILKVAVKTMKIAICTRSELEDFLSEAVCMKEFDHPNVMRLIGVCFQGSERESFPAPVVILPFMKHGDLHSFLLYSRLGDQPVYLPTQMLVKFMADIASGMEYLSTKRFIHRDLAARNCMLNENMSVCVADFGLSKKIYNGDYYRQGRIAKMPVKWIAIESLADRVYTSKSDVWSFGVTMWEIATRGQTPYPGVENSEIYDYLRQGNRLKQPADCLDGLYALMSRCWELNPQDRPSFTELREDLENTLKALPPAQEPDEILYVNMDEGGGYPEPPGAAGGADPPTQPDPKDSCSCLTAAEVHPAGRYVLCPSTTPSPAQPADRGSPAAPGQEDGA
The test is described as follows: Phospho-Akt In-Cell Western Assay (inhibition of Axl activity after Axl-antibody cross-linking). It is filed as cell-based.
Conditions: not given
In outline: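 HeLa cells on poly-L-lysine, starved 24 h in 0.5% FCS DMEM with Axl/Fc 500 ng/mL, pre-treated with compound 1 h at 37 °C, then stimulated 5 min by anti-Axl/anti-mouse antibody cross-linking. Fixed cells probed for phospho-Akt with HRP secondary and chemiluminescent detection.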
In turn, `Nc1nc(Nc2ccc(N3CCC(N4C(=O)Cc5ccccc54)CC3)c(F)c2)n(-c2cc3c(nn2)-c2ccccc2CCC3)n1` [Compound 157, 1-(6,7-dihydro-5H-benzo[6,7]cyclohepta[1,2-c]pyridazin-3-yl)-N^5-(3-fluoro-4-(4-(indolin-2-on-1-yl)piperidin-1-yl)phenyl)-1H-1,2,4-triazole-3,5-diamine] displayed an IC50 of over 20 µM.

The test is the same for the next values; noted with them: Hela cells, phospho-Akt chemiluminescence normalized to relative cell number; compounds of formula (Ia), Table 1; read-out: IC50.
For `Nc1nc(Nc2ccc(N3CC(N4CCCC4)C3)c(F)c2)nn1-c1cc2c(nn1)-c1ccccc1CCC2` [Compound 113, 1-(6,7-dihydro-5H-benzo[6,7]cyclohepta[1,2-c]pyridazin-3-yl)-N^3-(3-fluoro-4-(3-pyrrolidin-1-ylazetidinyl)phenyl)-1H-1,2,4-triazole-3,5-diamine], the IC50 was under 1 µM.

On to `Nc1nc(Nc2ccc(N3CCC(N4CCCCC4)CC3)c(F)c2)nn1-c1cc2c(nn1)-c1ccccc1CCC2` [Compound 6, 1-(6,7-dihydro-5H-benzo[6,7]cyclohepta[1,2-c]pyridazin-3-yl)-N^3-(3-fluoro-(4-(4-piperidin-1-yl)piperidin-1-yl)phenyl)-1H-1,2,4-triazole-3,5-diamine], for which the IC50 is under 1 µM.

Regarding `CN1CCC(N2CCN(c3ccc(Nc4nc(N)n(-c5cc6c(nn5)-c5ccccc5CCC6)n4)cc3F)CC2)CC1` [Compound 109, 1-(6,7-dihydro-5H-benzo[6,7]cyclohepta[1,2-c]pyridazin-3-yl)-N^3-(3-fluoro-4-(4-N-methylpiperidin-4-ylpiperazinyl)phenyl)-1H-1,2,4-triazole-3,5-diamine], the IC50 was under 1 µM.

For the compound `CN1CCC2(CCN(c3ccc(Nc4nc(N)n(-c5cc6c(nn5)-c5ccccc5CCC6)n4)cc3F)C2)C1` (stereo not shown) [Compound 110, 1-(6,7-dihydro-5H-benzo[6,7]cyclohepta[1,2-c]pyridazin-3-yl)-N^3-(3-fluoro-4-(7-methyl-2,7-diazaspiro[4.4]nonan-2-yl)phenyl)-1H-1,2,4-triazole-3,5-diamine], the IC50 is under 1 µM.

For `CN1CCN(C2CCN(c3ccc(Nc4nc(N)n(-c5cc6c(nn5)CCCc5ccccc5-6)n4)cc3F)CC2)CC1` [Compound 85, 1-(6,7-dihydro-5H-benzo[6,7]cyclohepta[4,5-c]pyridazin-2-yl)-N^3-(3-fluoro-4-(4-(N-methylpiperazin-1-yl)piperidin-1-yl)phenyl)-1H-1,2,4-triazole-3,5-diamine], the IC50 is under 1 µM.

Take `COc1ccc2c(c1)CCCc1cc(-n3nc(Nc4ccc(N5CCN(C6CCCCC6)CC5)c(F)c4)nc3N)nnc1-2` [Compound 57, 1-(6,7-dihydro-5H-9-methoxybenzo[6,7]cyclo-hepta[1,2-c]pyridazin-3-yl)-N^3-(3-fluoro-4-(4-(cyclohexyl)piperazin-1-yl)phenyl)-1H-1,2,4-triazole-3,5-diamine]: the IC50 was over 20 µM.

On to `CCCCN(Cc1ccc(Nc2nc(N)n(-c3cc4c(nn3)-c3ccccc3CCC4)n2)cc1)C(C)=O` [Compound 90, 1-(6,7-dihydro-5H-benzo[6,7]cyclohepta[1,2-c]pyridazin-3-yl)-N^3-(4-((N-butyl-N-acetoamino)methyl)phenyl)-1H-1,2,4-triazole-3,5-diamine], for which the IC50 lay within 1 to 10 µM.

For `Nc1nc(Nc2ccc3oc(CN4CCCC4)nc3c2)nn1-c1cc2c(nn1)-c1ccccc1OCC2` [Compound 118, 1-(6,7-dihydro-5H-benzo[2,3]oxepino[4,5-c]pyridazin-3-yl)-N^3-(2-(pyrrolidin-1-ylmethyl)benzo[d]oxazol-5-yl)-1H-1,2,4-triazole-3,5-diamine], the IC50 lay within 1 to 10 µM.

Regarding `Nc1nc(Nc2ccc(N3CCN4CCCCCC4C3)c(F)c2)nn1-c1cc2c(nn1)-c1ccccc1CCC2` (stereo not shown) [Compound 73, 1-(6,7-dihydro-5H-benzo[6,7]cyclohepta[1,2-c]pyridazin-3-yl)-N^3-(3-fluoro-4-(decahydropyrazino[1,2-a]azepin-2-yl)phenyl)-1H-1,2,4-triazole-3,5-diamine], the IC50 was under 1 µM.

With `N#Cc1cc(Nc2nc(N)n(-c3cc4c(nn3)-c3ccccc3CCC4)n2)ccc1N1CCC(N2CCCC2)CC1` [Compound 18, 1-(6,7-dihydro-5H-benzo[6,7]cyclohepta[1,2-c]pyridazin-3-yl)-N^3-(4-(4-(pyrrolidin-1-yl)piperidin-1-yl)-3-cyanophenyl)-1H-1,2,4-triazole-3,5-diamine], the IC50 was under 1 µM.

Consider `Nc1nc(Nc2ccc3c(c2)NC(=O)CCC3)nn1-c1cc2c(nn1)-c1ccccc1CCC2` [Compound 11, 1-(6,7-dihydro-5H-benzo[6,7]cyclohepta[1,2-c]pyridazin-3-yl)-N^3-(4,5-dihydro-1H-benzo[b]azepin-2(3H)-on-8-yl)-1H-1,2,4-triazole-3,5-diamine], for which the IC50 is under 1 µM.

Turning to `Nc1nc(Nc2ccc3c(c2)OCCCO3)nn1-c1cc2c(nn1)-c1ccccc1CCC2` [Compound 100, 1-(6,7-dihydro-5H-benzo[6,7]cyclohepta[1,2-c]pyridazin-3-yl)-N^3-(3,4-dihydro-2H-benzo[b][1,4]dioxepin-7-yl)-1H-1,2,4-triazole-3,5-diamine], the half-inhibitory concentration (IC50) is 1 to 10 µM.

`CN(C)CCN1CCOc2cc(Nc3nc(N)n(-c4cc5c(nn4)-c4ccccc4OCC5)n3)ccc21` [Compound 122, 1-(6,7-dihydro-5H-benzo[2,3]oxepino[4,5-c]pyridazin-3-yl)-N^3-(4-(2-dimethylaminoethyl)-(3,4-dihydro-2H-benzo[b][1,4]oxazin-7-yl))-1H-1,2,4-triazole-3,5-diamine]: the IC50 is under 1 µM.

Staying with this test, now noted: Hela cells, phospho-Akt chemiluminescence normalized to relative cell number; compounds of formula (Ib), Table 2; read-out: IC50.
On to `Nc1nc(Nc2ccc(N3CCC(N4CCCC4)CC3)cc2)n(-c2cc3c(nn2)-c2ccccc2CCC3)n1` [Compound 164, 1-(6,7-dihydro-5H-benzo[6,7]cyclohepta[1,2-c]pyridazin-3-yl)-N^5-(4-(4-pyrrolidin-1-ylpiperidinyl)phenyl)-1H-1,2,4-triazole-3,5-diamine], for which the half-inhibitory concentration (IC50) was 1 to 10 µM.

Consider `Nc1nc(Nc2ccc(N3CCN(CC4CC4)CC3)c(F)c2)n(-c2cc3c(nn2)-c2ccccc2CCC3)n1` [Compound 244, 1-(6,7-dihydro-5H-benzo[6,7]cyclohepta[1,2-c]pyridazin-3-yl)-N^5-(3-fluoro-4-(4-cyclopropylmethylpiperazin-1-yl)phenyl)-1H-1,2,4-triazole-3,5-diamine], for which the IC50 is under 1 µM.

The test is the same for the next values; noted with them: inhibition of Axl activity; Table 1, compounds of formula (Ia); read-out: IC50.
Consider `CC1(C)COC2(CCCc3ncc(Nc4nc(N)n(-c5cc6c(nn5)-c5ccccc5CCC6)n4)cc3CC2)OC1` [Compound 247, 1-(6,7-dihydro-5H-benzo[6,7]cyclohepta[1,2-c]pyridazin-3-yl)-N^3-(5′,5′-dimethyl-6,8,9,10-tetrahydro-5H-spiro[cycloocta[b]pyridine-7,2′-[1,3]dioxane]-3-yl)-1H-1,2,4-triazole-3,5-diamine], for which the IC50 is over 20 µM.

As for `Nc1nc(Nc2cnc3c(c2)CC[C@H](N2CCCC2)CC3)nn1-c1cc2c(nn1)-c1ccccc1CCC2` [Compound 191, 1-(6,7-dihydro-5H-benzo[6,7]cyclohepta[1,2-c]pyridazin-3-yl)-N^3-((S)-7-(pyrrolidin-1-yl)-6,7,8,9-tetrahydro-5H-cyclohepta[b]pyridine-3-yl)-1H-1,2,4-triazole-3,5-diamine], the IC50 is under 1 µM.

In the case of `Nc1nc(Nc2ccc3c(c2)CCC(NC2CCCCC2)CC3)nn1-c1cc2c(nn1)-c1ccccc1CCC2` (stereo not shown) [Compound 224, 1-(6,7-dihydro-5H-benzo[6,7]cyclohepta[1,2-c]pyridazin-3-yl)-N^3-(7-cyclohexylamino-6,7,8,9-tetrahydro-5H-benzo[7]annulene-2-yl)-1H-1,2,4-triazole-3,5-diamine], the IC50 was under 1 µM.

Turning to `Nc1nc(Nc2ccc(N3CCN(CC4CC4)CC3)nc2)nn1-c1cc2c(nn1)-c1ccccc1CCC2` [Compound 187, 1-(6,7-dihydro-5H-benzo[6,7]cyclohepta[1,2-c]pyridazin-3-yl)-N^3-(2-(4-cyclopropylmethylpiperazin-1-yl)pyridine-5-yl)-1H-1,2,4-triazole-3,5-diamine], the IC50 is 1 to 10 µM.

Turning to `CN1CCN(c2ccc(Nc3nc(N)n(-c4cc5c(nn4)-c4ccccc4CCC5)n3)cc2F)CC1` [Compound 209, 1-(6,7-dihydro-5H-benzo[6,7]cyclohepta[1,2-c]pyridazin-3-yl)-N^3-(3-fluoro-4-(4-methylpiperazin-1-yl)phenyl)-1H-1,2,4-triazole-3,5-diamine], the IC50 was under 1 µM.

As for `CN1CCN(C2CCc3ccc(Nc4nc(N)n(-c5cc6c(nn5)-c5ccccc5CCC6)n4)cc3CC2)CC1` (stereo not shown) [Compound 227, 1-(6,7-dihydro-5H-benzo[6,7]cyclohepta[1,2-c]pyridazin-3-yl)-N^3-(7-(4-methylpiperazin-1-yl)-6,7,8,9-tetrahydro-5H-benzo[7]annulene-2-yl)-1H-1,2,4-triazole-3,5-diamine], the IC50 is under 1 µM.
